Measurements: patent US5112808A, “Alkylated hormone-releasing peptides and method of treatig mammals therewith” (American Cyanamid Company, priority 1988, dated 1992)
Where no end group is shown, it is not given here.

What was measured:
growth hormone release = assay: Peptide effects on growth hormone release in the pentobarbital-anesthetized rat (plasma GH by RIA); type: in vivo
Method: In this evaluation, the procedures described by W. A. Murphy et al., Endocrinology 109: 491-495 (1980), were employed.
In growth hormone (GH) experiments, male rats (Charles Rivers) were anesthetized with NEMBUTAL® (6 mg per 100 g body weight) which also served to maintain stimulated plasma GH levels. Exactly 30 minutes after the rats were anesthetized, 0.5 mL of saline or the test peptide in saline was administered as a SC bolus. A 1 mL blood sample was drawn from the jugular vein 15 minutes after the injection of the peptide in saline or at the indicated times in the time course assay (p26). GH levels were determined using NIADDKD rat GH RIA components.

plasma growth hormone = assay: Evaluation of peptides in vivo in sheep: plasma GH levels in lambs injected intravenously at 100 ng/kg; settings: for Plasma GH Peak / Plasma GH Post-inj Mean: 100 ng/kg IV; for Plasma GH Peak: control 12.2; for Plasma GH Post-inj Mean: two hours after treatment, means of 8 samples/animal from 8 animals, control 8.7; for Plasma GH Pre-inj Mean: before IV injection of 100 ng/kg, means of 5 samples/animal from 8 animals, control 8.4
Method: The purpose of this experiment is to compare the GH releasing activities of several GRF analogs selected for expected high potency and the lack of either a terminal amide or a D-amino acid. The analogs to be compared in wether lambs at 100 ng/kg (IV) are tri-isopropyl-GRF(1-29)-NH2, tri-isopropyl-GRF(1-29)-OH, tri-isopropyl-GRF(1-40)OH, D-ala^2, arg^12,21 -GRF (1-29)-OH, D-ala^2, arg^12,21 -GRF(1-29)-NH2, GRF(1-40)-OH and GRF(1-29)-NH2
A balanced 8×8 Latin square design will be used to test the following 8 treatments:
Sheep are maintained in individual metabolism cages at all times. Each sheep has previously received an indwelling jugular cannula which is flushed daily with heparinized (400-800 IU/ml) sterile saline to help maintain […].
All compounds are solubilized at 5 ug/ml in sterile saline containing 1% Tween 80 and injected intravenously at 100 ng/kg. Control lambs receive equal volumes of the vehicle only. The drugs are prepared each day just prior to injection to minimize sticking to the vials.
Blood is collected in heparinized tubes at 15 minute intervals for one hour prior to and for two hours after the treatments are administered. Plasma samples are removed by centrifugation and frozen.
Blood samples are taken from each animal at 15 minute intervals for 3 hours each day during the 8 day trial period. The samples are analyzed for plasma growth hormone (ng/ml). Data obtained are reported below as near values obtained for each treatment.

In the case of “[N^α -Isopropyl-Tyr^1 ]GRF(1-29)NH2 [N^α iPrTyr^1]”, the “PLASMA GH” value (growth hormone release; dose 0.2 ug/100 g BW SC, 15 min, saline control 325 ± 52) is reported as 1334 ± 394 ng/mL, the “PLASMA GH” value (growth hormone release; dose 2 ug/100 g BW SC, 15 min, saline control 325 ± 52) is reported as 3250 ± 362 ng/mL and the “PLASMA GH” value (growth hormone release; dose 20 ug/100 g BW SC, 15 min, saline control 325 ± 52) is reported as 3290 ± 241 ng/mL. The POTENCY (growth hormone release; relative to GRF(1-29)NH2 (=1), estimated by single dose comparisons to pooled standard responses) was ~ 60.
“GRF(1-40)-OH (YADAIFTNSYRKVLGQLSARKLLQDIMSRQQGESNQERGA-OH; UniProt P01286 32-71, looked up, fragment) [unalkylated human GRF(1-40) free acid, comparator in the sheep test, reference compound]” was tested, and the “Plasma GH Peak” value (plasma growth hormone) was 92.3 ng/mL, the “Plasma GH Post-inj Mean” value (plasma growth hormone) was 25.5 ng/mL and the “Plasma GH Pre-inj Mean” value (plasma growth hormone) was 9.4 ng/mL.
“[N ^α -Isopropyl-Tyr^1, N ^ε -isopropyl-Lys^12,21 ]GRF(1-40)OH [tri-isopropyl-GRF(1-40)-OH]” was tested, and the “Plasma GH Peak” value (plasma growth hormone) was 108.6 ng/mL, the “Plasma GH Post-inj Mean” value (plasma growth hormone) was 34.0 ng/mL and the “Plasma GH Pre-inj Mean” value (plasma growth hormone) was 9.5 ng/mL.
For `CC[C@H](C)[C@H](NC(=O)[C@H](C)NC(=O)[C@H](CC(=O)O)NC(=O)[C@H](C)NC(=O)[C@H](Cc1ccc(O)cc1)NC)C(=O)N[C@@H](Cc1ccccc1)C(=O)N[C@H](C(=O)N[C@@H](CC(N)=O)C(=O)N[C@@H](CO)C(=O)N[C@@H](Cc1ccc(O)cc1)C(=O)N[C@@H](CCCNC(=N)N)C(=O)N[C@@H](CCCCN)C(=O)N[C@H](C(=O)N[C@@H](CC(C)C)C(=O)NCC(=O)N[C@@H](CCC(N)=O)C(=O)N[C@@H](CC(C)C)C(=O)N[C@@H](CO)C(=O)N[C@@H](C)C(=O)N[C@@H](CCCNC(=N)N)C(=O)N[C@@H](CCCCN)C(=O)N[C@@H](CC(C)C)C(=O)N[C@@H](CC(C)C)C(=O)N[C@@H](CCC(N)=O)C(=O)N[C@@H](CC(=O)O)C(=O)N[C@H](C(=O)N[C@@H](CCSC)C(=O)N[C@@H](CO)C(=O)N[C@@H](CCCNC(=N)N)C(N)=O)[C@@H](C)CC)C(C)C)[C@@H](C)O` [N^α MeTry^1, [N α-MeTyr^1]hpGRF(1-29)-NH2, reference compound], the “PLASMA GH” value (growth hormone release; dose 30 ug/100 g BW SC, blood 15 min after injection, saline control 243 ± 25) was 1843 ± 196 ng/mL, the “PLASMA GH” value (growth hormone release; dose 75 ug/100 g BW SC, blood 15 min after injection, saline control 243 ± 25) was 2613 ± 418 ng/mL and the POTENCY (growth hormone release; relative to GRF(1-29)NH2 (=1) as standard, by 4point assay (95% CI limits in parentheses)) was 0.42.
